Reference: patent publication US20170333459A1 (priority 2010, published 2017)
Where “and” joins values, the source holds several entries; their conditions need not be identical. Identical values can stand only once.

Experiments:
[1] = target: T1, human Organic Anion Transporter 1 (hOAT1) (Homo sapiens, UniProt Q4U2R8)
T1 sequence (Q4U2R8 1-563): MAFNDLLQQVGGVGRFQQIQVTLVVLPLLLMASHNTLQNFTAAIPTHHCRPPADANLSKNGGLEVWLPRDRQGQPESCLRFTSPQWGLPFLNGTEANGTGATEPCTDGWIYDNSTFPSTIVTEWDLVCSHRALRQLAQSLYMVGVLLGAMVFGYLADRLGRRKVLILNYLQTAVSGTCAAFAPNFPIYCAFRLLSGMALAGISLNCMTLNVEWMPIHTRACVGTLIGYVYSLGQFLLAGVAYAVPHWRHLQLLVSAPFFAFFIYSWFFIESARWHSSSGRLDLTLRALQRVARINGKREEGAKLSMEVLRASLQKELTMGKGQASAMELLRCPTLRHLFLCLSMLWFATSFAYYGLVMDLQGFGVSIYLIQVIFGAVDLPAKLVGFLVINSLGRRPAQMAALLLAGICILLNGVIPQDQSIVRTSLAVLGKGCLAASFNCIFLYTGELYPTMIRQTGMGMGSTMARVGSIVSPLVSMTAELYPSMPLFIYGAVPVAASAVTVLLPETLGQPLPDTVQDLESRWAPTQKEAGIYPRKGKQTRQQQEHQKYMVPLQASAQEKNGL

hOAT3 [2] = target: T2, hOAT3 (Homo sapiens, UniProt Q8TCC7); conditions: MDCK
T2 sequence (Q8TCC7 1-542): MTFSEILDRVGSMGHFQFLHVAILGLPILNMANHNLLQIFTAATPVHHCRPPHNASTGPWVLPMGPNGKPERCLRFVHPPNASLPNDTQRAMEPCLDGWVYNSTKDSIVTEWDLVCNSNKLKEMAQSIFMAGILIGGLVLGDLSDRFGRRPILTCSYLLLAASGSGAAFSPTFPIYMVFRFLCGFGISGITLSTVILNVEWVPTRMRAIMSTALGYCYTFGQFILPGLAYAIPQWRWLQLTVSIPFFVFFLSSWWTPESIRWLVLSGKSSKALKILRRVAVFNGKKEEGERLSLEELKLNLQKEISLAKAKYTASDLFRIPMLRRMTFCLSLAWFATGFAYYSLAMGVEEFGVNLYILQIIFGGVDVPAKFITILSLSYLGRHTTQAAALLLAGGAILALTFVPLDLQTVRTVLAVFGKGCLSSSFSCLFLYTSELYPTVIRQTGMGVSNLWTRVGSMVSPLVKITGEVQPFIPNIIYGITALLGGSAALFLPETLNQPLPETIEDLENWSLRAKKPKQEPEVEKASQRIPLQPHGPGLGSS

monkeypox virus = conditions: monkey, in vivo, iv, 20 mg/kg; cited from earlier work
hOAT3 [3] = target: T2, hOAT3; parameters: host or cells: MDCK-II cells, transiently transfected; conditions: reported for hOAT3-mediated uptake; cited from earlier work
vaccinia virus = system: vaccinia virus; parameters: species or system human; conditions: in vivo
[4] = human, in vivo, po
rabbitpox virus = system: rabbitpox virus; parameters: species or system rabbits; conditions: rabbit, in vivo
[5] = human, in vivo, po; remark: listed apart in the source
variola virus = conditions: read-out: in vitro potency; cited from earlier work

SMILES | Uptake (Transporter) ([1]; 5 min) | net uptake in hOAT1 expressing cells ([1]; MDCK) | uptake in the presence of OAT inhibitor probenecid ([1]; MDCK) | net uptake in hOAT3 expressing cells (hOAT3 [2]) | survivors (monkeypox virus) | lower uptake efficiency (Vmax/Km) (hOAT3 [3]) [fold] | clinical outcome of progressive vaccinia (vaccinia virus) | ST-246 levels [4] | effective single dose (rabbitpox virus) [mg/kg] | preventing mortality (rabbitpox virus) | survivors (rabbitpox virus; 20 mg/kg) | effect of 20% serum on uptake ([1]; MDCK) | substrate for hOAT1 ([1]; MDCK) | Net Transporter Uptake ([1]; human, MDCK) [pmol/min/cm^2] | substrate for hOAT3 (hOAT3 [2]) | nephrotoxicity [5] | EC50 (variola virus) [nM]
Nc1ccn(C[C@@H](CO)OCP(=O)(O)O)c(=O)n1 [CDV, cidofovir] | 116 ± 22 pmol/min/cm^2 and 117 ± 15 pmol/min/cm^2 | enhanced | decreased | not enhanced | 7/8 | > 100 | – | – | – | – | – | – | – | – | – | – | –
O=C(NN1C(=O)[C@@H]2[C@@H]3C=C[C@@H]([C@H]4C[C@@H]34)[C@@H]2C1=O)c1ccc(C(F)(F)F)cc1 [ST-246, reference compound] | – | – | – | – | – | – | improvement of progressive vaccinia | lower | – | – | – | – | – | – | – | – | –
CCCCCCCCCCCCCCCCOCCCOP(=O)(O)CO[C@H](CO)Cn1ccc(N)nc1=O [CMX001, 1-O-hexadecyloxypropyl cidofovir] | – | not enhanced | – | not enhanced | – | – | improvement of progressive vaccinia | – | 20 | effective in preventing mortality | 11/12 | substantially reduced | not a substrate | −0.3 ± 5.4 | not a substrate | no signs of nephrotoxicity have been observed | 100
